We go through 2 compounds from ChEMBL document CHEMBL5096238 (J Med Chem, 2022).

Data set [1] can be described thus: AUC(0 to t) in Sprague-Dawley rat at 10 mg/kg, ip measured for 24 hrs by LC-MS/MS analysis. In kind it is ADME, organism-based. On the set-up: dose 10 mg/kg, time 24 hrs, route ip. As to conditions: in vivo.
Data set [2] can be described thus: AUC(0 to t) in Sprague-Dawley rat at 10 mg/kg, po measured for 24 hrs by LC-MS/MS analysis. It is filed as ADME, organism-based. On the set-up: time 24 hrs, dose 10 mg/kg, route po. To be noted: in vivo.
Data set [3] can be described thus: AUC(0 to t) in Sprague-Dawley rat at 2 mg/kg, iv measured for 24 hrs by LC-MS/MS analysis. In kind it is ADME, organism-based. On the set-up: time 24 hrs, dose 2 mg/kg, route iv. As to conditions: in vivo.
The target of data set [4] is T1, Hepatocyte growth factor receptor (Homo sapiens, UniProt P08581). As to the kind of experiment: Inhibition of N-terminal His/SUMO tagged wild type human c-Met (1038 to 1346 residues) transfected in Escherichia coli using Tyr06 peptide as substrate incubated for 1 hr in presence of ATP by FRET-based Z'-Lyte assay.
In data set [5] the target is T2, Tyrosine-protein kinase receptor UFO (Homo sapiens, UniProt P30530).
T2 sequence (P30530 whole entry): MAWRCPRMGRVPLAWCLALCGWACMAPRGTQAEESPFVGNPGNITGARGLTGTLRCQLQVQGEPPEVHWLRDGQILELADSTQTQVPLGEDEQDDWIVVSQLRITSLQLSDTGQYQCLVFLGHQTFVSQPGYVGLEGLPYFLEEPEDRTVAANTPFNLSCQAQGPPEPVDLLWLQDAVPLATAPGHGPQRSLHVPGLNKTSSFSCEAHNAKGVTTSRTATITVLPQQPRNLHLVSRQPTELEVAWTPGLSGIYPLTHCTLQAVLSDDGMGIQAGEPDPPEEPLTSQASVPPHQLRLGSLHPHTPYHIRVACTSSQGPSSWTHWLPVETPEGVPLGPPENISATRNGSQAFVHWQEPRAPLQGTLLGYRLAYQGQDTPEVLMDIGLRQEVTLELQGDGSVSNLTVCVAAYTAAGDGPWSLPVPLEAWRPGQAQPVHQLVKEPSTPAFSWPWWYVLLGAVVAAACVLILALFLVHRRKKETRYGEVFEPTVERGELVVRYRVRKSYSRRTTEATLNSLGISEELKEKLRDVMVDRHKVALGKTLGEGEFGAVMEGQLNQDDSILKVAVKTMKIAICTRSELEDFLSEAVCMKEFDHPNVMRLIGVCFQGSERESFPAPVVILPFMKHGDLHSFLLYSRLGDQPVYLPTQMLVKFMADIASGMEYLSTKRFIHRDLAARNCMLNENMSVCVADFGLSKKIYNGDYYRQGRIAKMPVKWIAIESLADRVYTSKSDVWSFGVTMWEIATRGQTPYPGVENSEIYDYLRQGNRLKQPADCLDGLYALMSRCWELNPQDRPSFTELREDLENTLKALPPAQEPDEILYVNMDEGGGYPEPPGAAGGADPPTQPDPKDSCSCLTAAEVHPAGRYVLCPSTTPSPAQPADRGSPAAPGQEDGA
The experiment in a line: Inhibition of AXL (unknown origin).

The nature of data set [6]: Apparent permeability across apical to basolateral side in human Caco-2 cells at 10 uM incubated for 120 mins by LC-MS/MS analysis. It is filed as ADME, cell-based. In general terms: Passage across Caco-2 layers is used to estimate intestinal permeability.
Data set [7] deals with BaF3. The experiment in a line: Induction of apoptosis in mouse BaF3 cells harboring wild type Tpr-Met fusion protein assessed as viable cells at 10 nM incubated for 48 hrs by Annexin V/7-AAD staining based flow cytometry analysis (reference value: 89.76%). In kind it is functional. To be noted: read-out: Activity. A general note: Flow cytometry measures light scatter and fluorescence of single cells or particles in a stream.

Data set [8] deals with BaF3. The experiment in a line: Induction of apoptosis in mouse BaF3 cells harboring wild type Tpr-Met fusion protein assessed as viable cells at 20 nM incubated for 48 hrs by Annexin V/7-AAD staining based flow cytometry analysis (reference value: 89.76%). In kind it is functional. As to conditions: read-out: Activity.
Data set [9] concerns BaF3. The experiment in a line: Induction of apoptosis in mouse BaF3 cells harboring wild type Tpr-Met fusion protein assessed as viable cells at 40 nM incubated for 48 hrs by Annexin V/7-AAD staining based flow cytometry analysis (reference value: 89.76%). It is filed as functional. To be noted: read-out: Activity.
Data set [10] in a line: Half life in Sprague-Dawley rat at 2 mg/kg, iv measured for 24 hrs by LC-MS/MS analysis. To be noted: in vivo. In kind it is ADME, organism-based.
Data set [11] is described as follows: Half life in Sprague-Dawley rat at 10 mg/kg, po measured for 24 hrs by LC-MS/MS analysis. In kind it is ADME, organism-based. As to conditions: in vivo.
A short description of data set [12]: Half life in Sprague-Dawley rat at 10 mg/kg, ip measured for 24 hrs by LC-MS/MS analysis. In kind it is ADME, organism-based. As to conditions: in vivo.
Data set [13] can be described thus: Tmax in Sprague-Dawley rat at 2 mg/kg, iv measured for 24 hrs by LC-MS/MS analysis. It is filed as ADME, organism-based. To be noted: in vivo.
Data set [14] in a line: Tmax in Sprague-Dawley rat at 10 mg/kg, po measured for 24 hrs by LC-MS/MS analysis. As to conditions: in vivo. It is filed as ADME, organism-based.
Data set [15] in a line: Tmax in Sprague-Dawley rat at 10 mg/kg, ip measured for 24 hrs by LC-MS/MS analysis. It is filed as ADME, organism-based. As to conditions: in vivo.
The nature of data set [16]: Cmax in Sprague-Dawley rat at 2 mg/kg, iv measured for 24 hrs by LC-MS/MS analysis. In kind it is ADME, organism-based. Also noted: dose 2 mg/kg, time 24 hrs, route iv. As to conditions: in vivo.
The nature of data set [17]: Cmax in Sprague-Dawley rat at 10 mg/kg, po measured for 24 hrs by LC-MS/MS analysis. It is filed as ADME, organism-based. On the set-up: dose 10 mg/kg, time 24 hrs, route po. As to conditions: in vivo.
Data set [18] can be described thus: Cmax in Sprague-Dawley rat at 10 mg/kg, ip measured for 24 hrs by LC-MS/MS analysis. As to conditions: in vivo. On the set-up: time 24 hrs, dose 10 mg/kg, route ip. In kind it is ADME, organism-based.
A short description of data set [19]: Apparent volume of distribution in Sprague-Dawley rat at 2 mg/kg, iv measured for 24 hrs by LC-MS/MS analysis. It is filed as ADME, organism-based. As to conditions: in vivo, read-out: Vz.
Data set [20] is described as follows: Clearance in Sprague-Dawley rat at 2 mg/kg, iv measured for 24 hrs by LC-MS/MS analysis. It is filed as ADME, organism-based. To be noted: in vivo.
The nature of data set [21]: MRT (0 to t) in Sprague-Dawley rat at 2 mg/kg, iv measured for 24 hrs by LC-MS/MS analysis. It is filed as ADME, organism-based. To be noted: in vivo.
A short description of data set [22]: MRT (0 to t) in Sprague-Dawley rat at 10 mg/kg, po measured for 24 hrs by LC-MS/MS analysis. In kind it is ADME, organism-based. To be noted: in vivo.
A short description of data set [23]: MRT (0 to t) in Sprague-Dawley rat at 10 mg/kg, ip measured for 24 hrs by LC-MS/MS analysis. It is filed as ADME, organism-based. As to conditions: in vivo.
The nature of data set [24]: Oral bioavailability in Sprague-Dawley rat at 10 mg/kg measured for 24 hrs by LC-MS/MS analysis. In kind it is ADME, organism-based. To be noted: in vivo.
The nature of data set [25]: Bioavailability in Sprague-Dawley rat at 10 mg/kg, ip measured for 24 hrs by LC-MS/MS analysis. In kind it is ADME, organism-based. As to conditions: in vivo.
A further data set deals with Cytochrome P450 2C9 (Homo sapiens, UniProt P11712). The experiment in a line: Inhibition of CYP2C9 (unknown origin) in microsomes preincubated for 5 mins followed by NADPH addition by LC-MS/MS analysis. It is filed as ADME, Microsome.
A further data set addresses Cytochrome P450 2D6 (Homo sapiens, UniProt P10635). The experiment in a line: Inhibition of CYP2D6 (unknown origin) in microsomes preincubated for 5 mins followed by NADPH addition by LC-MS/MS analysis. In kind it is ADME, Microsome.
The target of another data set is Cytochrome P450 3A4 (Homo sapiens, UniProt P08684). As to the kind of experiment: Inhibition of CYP3A4 (unknown origin) in microsomes sing testosterone as a substrate preincubated for 5 mins followed by NADPH addition by LC-MS/MS analysis. It is filed as ADME, Microsome.
Data set [26] deals with Voltage-gated inwardly rectifying potassium channel KCNH2 (Homo sapiens, UniProt Q12809). As to the kind of experiment: Inhibition of hERG expressed in HEK293 cells by whole-cell patch clamp technique. It is filed as toxicity, cell-based. Background: The hERG channel carries a current that helps repolarise heart muscle cells.
The target in data set [27] is Hepatocyte growth factor receptor (Mus musculus) (UniProt P16056). To be noted: BaF3, dose 1.1-30 nM, time 12.0 hrs.
The target in data set [28] is T1, Hepatocyte growth factor receptor. As to conditions: Hs746T, dose 1.1-30 nM, time 12.0 hrs.
A further data set relates to Hs746T. As to the kind of experiment: cells. To be noted: Homo sapiens, 120 h.
Data set [29] relates to BaF3. The experiment in a line: cells. As to conditions: Mus musculus, BaF3, 72 h.
The test system of data set [30] is BaF3. As to the kind of experiment: cells. As to conditions: Mus musculus, BaF3, 72 h. This is another data set of the same source.
For data set [31], the system named is BaF3. As to the kind of experiment: cells. As to conditions: Mus musculus, BaF3, 72 h. The source holds these as a separate data set.
The test system of data set [32] is BaF3. As to the kind of experiment: cells. To be noted: Mus musculus, BaF3, 72 h. This is another data set of the same source.
Data set [33] relates to BaF3. The experiment in a line: cells. As to conditions: Mus musculus, BaF3, 72 h. This is another data set of the same source.
In data set [34] the test system is BaF3. As to the kind of experiment: cells. As to conditions: Mus musculus, BaF3, 72 h. The source holds these as a separate data set.
The subject of data set [35] is BaF3. The experiment in a line: cells. As to conditions: Mus musculus, BaF3, 72 h. The source holds these as a separate data set.
Data set [36] relates to BaF3. As to the kind of experiment: cells. As to conditions: Mus musculus, BaF3, 72 h. This is another data set of the same source.
Another data set deals with AGS. As to the kind of experiment: cells. To be noted: Homo sapiens, 120 h.
For a further data set, the system named is SNU-16. As to the kind of experiment: cells. To be noted: Homo sapiens, SNU-16, 120 h.

SMILES strings stand for the structures.

Usually AUC(0-t) stands for exposure summed from dosing to a finite time, without extrapolation to infinity. Read a low AUC(0-t) as low exposure. A word on the IC50: it is the concentration that gives 50% inhibition. What is called Papp A→B is the apparent permeability from the apical to the basolateral side of a cell layer. Usually half-life stands for the time in which the quantity being followed falls by half. By Tmax is commonly meant the time from dosing to the highest level. For orientation: Cmax means the highest concentration seen after dosing. The clearance is the volume of plasma or blood freed of the substance per unit of time. In general, MRT last refers to the average time that molecules of a dose stay in the body. By bioavailability is commonly meant dose-corrected exposure relative to a reference, in per cent. Low readings indicate little systemic uptake, high ones much systemic uptake.

T1 sequence (P08581 whole entry, the tested form may be a part): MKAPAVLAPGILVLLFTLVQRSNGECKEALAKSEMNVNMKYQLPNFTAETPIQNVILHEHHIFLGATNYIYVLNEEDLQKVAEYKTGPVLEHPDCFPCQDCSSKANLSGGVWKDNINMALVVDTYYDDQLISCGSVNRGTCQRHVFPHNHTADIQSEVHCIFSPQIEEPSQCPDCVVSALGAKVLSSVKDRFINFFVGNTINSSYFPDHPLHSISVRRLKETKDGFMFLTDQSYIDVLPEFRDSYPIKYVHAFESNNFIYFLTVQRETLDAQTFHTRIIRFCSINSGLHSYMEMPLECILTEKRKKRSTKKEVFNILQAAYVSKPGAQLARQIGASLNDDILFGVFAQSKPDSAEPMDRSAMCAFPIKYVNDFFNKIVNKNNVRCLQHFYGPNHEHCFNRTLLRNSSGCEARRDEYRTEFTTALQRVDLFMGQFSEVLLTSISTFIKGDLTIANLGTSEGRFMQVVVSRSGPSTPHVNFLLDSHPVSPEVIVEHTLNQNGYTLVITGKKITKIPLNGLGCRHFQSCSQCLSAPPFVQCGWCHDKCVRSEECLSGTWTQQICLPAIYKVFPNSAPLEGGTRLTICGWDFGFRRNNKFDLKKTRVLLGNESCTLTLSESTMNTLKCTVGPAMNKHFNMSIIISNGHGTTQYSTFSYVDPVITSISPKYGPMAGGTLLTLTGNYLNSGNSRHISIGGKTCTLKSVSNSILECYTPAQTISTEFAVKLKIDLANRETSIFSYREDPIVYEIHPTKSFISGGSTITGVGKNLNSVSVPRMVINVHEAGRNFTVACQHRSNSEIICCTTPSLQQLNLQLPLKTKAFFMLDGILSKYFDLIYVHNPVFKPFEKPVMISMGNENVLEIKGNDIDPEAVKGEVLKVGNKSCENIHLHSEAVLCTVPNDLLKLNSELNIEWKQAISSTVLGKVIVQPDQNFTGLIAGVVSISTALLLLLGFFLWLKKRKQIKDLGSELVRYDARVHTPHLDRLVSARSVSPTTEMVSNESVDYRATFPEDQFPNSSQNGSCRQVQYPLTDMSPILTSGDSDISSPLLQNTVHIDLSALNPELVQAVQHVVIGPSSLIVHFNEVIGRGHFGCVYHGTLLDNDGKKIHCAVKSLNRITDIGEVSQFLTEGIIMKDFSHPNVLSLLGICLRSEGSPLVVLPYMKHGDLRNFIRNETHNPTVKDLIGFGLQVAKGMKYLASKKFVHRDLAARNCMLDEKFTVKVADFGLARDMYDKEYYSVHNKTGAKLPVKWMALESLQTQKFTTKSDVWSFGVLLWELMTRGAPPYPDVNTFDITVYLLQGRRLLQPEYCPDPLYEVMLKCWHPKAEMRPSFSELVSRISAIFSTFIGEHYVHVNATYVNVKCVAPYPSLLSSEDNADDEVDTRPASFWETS
Chain of Voltage-gated inwardly rectifying potassium channel KCNH2 (Q12809 whole entry): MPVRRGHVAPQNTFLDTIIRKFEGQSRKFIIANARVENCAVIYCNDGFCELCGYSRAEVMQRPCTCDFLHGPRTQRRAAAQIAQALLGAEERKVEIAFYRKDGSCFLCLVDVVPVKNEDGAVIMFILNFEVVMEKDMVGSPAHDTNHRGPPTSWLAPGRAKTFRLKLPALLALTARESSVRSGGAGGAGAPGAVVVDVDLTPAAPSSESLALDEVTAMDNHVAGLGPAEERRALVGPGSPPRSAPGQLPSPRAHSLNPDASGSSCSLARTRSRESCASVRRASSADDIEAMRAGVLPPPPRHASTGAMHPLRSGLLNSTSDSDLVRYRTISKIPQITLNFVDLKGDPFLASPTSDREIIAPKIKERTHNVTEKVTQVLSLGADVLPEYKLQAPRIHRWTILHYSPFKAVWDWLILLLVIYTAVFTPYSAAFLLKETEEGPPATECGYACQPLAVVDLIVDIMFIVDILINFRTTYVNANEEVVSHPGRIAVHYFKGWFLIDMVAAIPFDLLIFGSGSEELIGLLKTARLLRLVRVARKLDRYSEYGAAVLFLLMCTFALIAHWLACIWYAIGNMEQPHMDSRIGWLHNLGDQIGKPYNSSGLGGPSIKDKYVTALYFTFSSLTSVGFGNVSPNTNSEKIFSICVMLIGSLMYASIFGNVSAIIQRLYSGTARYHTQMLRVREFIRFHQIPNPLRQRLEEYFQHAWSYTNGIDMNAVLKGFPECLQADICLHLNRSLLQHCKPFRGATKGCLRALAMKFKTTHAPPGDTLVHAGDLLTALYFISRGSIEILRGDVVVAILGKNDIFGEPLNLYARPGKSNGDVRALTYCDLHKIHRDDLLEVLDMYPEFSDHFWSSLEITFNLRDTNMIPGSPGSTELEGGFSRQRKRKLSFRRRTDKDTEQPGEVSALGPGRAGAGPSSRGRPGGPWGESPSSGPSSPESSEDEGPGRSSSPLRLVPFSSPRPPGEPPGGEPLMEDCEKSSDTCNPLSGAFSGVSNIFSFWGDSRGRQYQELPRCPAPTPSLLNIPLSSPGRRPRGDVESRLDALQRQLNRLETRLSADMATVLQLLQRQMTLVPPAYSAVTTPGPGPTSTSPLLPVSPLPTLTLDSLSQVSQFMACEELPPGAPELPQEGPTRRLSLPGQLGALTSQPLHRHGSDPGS
Chain of Cytochrome P450 2C9 (P11712 whole entry): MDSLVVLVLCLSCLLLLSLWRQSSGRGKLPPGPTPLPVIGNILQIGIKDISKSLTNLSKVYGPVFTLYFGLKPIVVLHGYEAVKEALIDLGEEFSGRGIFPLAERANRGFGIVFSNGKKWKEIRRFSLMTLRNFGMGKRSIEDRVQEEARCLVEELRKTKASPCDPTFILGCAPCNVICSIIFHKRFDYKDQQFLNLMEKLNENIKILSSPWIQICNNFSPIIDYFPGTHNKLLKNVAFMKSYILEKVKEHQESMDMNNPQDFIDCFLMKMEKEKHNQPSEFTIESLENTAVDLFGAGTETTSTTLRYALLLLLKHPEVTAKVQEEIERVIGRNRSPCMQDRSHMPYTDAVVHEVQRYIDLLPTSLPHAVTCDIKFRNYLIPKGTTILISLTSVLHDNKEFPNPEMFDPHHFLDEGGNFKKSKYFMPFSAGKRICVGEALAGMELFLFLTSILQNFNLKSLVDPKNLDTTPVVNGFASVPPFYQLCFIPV
Chain of Cytochrome P450 2D6 (P10635 whole entry): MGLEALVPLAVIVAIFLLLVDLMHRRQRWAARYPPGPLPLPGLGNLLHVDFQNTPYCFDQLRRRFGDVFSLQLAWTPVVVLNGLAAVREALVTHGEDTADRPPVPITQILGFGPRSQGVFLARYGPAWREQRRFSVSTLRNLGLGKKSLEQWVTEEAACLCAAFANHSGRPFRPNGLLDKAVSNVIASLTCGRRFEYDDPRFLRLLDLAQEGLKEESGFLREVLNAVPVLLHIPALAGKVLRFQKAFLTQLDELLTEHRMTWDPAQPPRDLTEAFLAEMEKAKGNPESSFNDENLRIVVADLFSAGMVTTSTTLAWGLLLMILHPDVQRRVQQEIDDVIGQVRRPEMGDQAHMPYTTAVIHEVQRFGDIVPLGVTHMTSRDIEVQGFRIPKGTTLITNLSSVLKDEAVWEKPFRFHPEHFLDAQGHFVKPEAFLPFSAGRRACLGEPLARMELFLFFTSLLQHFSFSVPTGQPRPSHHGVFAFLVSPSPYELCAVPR
Chain of Hepatocyte growth factor receptor (Mus musculus) (P16056 whole entry): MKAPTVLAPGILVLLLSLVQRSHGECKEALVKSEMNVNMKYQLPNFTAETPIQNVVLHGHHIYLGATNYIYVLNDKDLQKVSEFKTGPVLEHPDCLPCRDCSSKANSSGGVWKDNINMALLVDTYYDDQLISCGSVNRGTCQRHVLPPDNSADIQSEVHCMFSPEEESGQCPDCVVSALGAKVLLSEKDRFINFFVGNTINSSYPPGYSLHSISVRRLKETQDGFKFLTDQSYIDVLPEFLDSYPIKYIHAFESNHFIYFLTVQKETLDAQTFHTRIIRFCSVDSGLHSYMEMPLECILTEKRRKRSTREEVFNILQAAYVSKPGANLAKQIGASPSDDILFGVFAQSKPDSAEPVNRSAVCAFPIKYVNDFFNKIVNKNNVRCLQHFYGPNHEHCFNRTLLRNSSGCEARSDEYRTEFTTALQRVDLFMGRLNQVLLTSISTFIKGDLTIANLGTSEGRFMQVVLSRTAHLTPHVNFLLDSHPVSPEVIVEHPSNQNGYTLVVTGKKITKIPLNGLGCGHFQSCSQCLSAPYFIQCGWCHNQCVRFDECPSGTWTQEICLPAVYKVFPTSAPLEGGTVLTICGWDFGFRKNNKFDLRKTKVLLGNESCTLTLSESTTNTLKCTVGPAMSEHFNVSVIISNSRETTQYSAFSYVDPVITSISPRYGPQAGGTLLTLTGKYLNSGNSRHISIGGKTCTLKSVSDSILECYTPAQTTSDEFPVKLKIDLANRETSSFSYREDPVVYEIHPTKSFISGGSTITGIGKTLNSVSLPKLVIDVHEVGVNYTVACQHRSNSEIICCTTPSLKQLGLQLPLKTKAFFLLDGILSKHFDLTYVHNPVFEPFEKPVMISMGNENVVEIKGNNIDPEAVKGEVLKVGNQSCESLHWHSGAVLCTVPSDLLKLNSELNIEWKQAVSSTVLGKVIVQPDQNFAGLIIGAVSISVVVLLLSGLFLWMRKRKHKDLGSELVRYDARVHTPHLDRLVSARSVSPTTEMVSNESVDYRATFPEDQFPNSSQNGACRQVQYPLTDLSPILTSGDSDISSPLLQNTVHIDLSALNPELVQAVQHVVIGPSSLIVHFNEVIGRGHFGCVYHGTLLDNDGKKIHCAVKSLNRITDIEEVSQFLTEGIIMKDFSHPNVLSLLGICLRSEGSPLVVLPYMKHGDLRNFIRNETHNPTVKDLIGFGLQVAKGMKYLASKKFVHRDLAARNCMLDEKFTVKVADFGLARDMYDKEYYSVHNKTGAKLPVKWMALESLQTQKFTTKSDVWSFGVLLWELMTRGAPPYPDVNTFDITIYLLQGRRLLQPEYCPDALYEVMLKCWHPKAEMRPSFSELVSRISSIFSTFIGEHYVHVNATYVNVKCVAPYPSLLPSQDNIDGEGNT

With `O=C1NCCCCn2cc(cn2)-c2cnc3ccc(cc3c2)CCn2nc(ccc2=O)-c2ccc1c(C(F)(F)F)c2`, the AUC(0-t) at 24 h was determined as 820 ng·h/mL in data set [1], 48.9 ng·h/mL in [2] and 484 ng·h/mL in [3]. The IC50 was 0.0029 µM in [4]; 0.401 µM in [5]; above 10 µM on Cytochrome P450 2C9; above 10 µM against Cytochrome P450 2D6; above 10 µM against Cytochrome P450 3A4; 27.7 µM in [26]. Further, the Papp A→B at 2 h, 10 µM in data set [6] turned out to be 0.53 ×10⁻⁶ cm/s. Besides, in the data set on BaF3 [7], the viability at 0.01 µM worked out at 87%. Also, the viability at 0.02 µM with BaF3 [8] was found to be 75.4%. Besides, the viability at 0.04 µM in the data set with BaF3 [9] came to 42.9%. The half-life in data set [10] was 34.2 min; in [11], 149 min; in data set [12], 278 min. Besides, the Tmax in data set [13] came to 4.8 min; in [14], 15 min; in data set [15], 15 min. The Cmax in data set [16] stood at 1070 ng/mL; in data set [17], 61 ng/mL; in [18] it was 282 ng/mL. Further, in data set [19], the Vd was 3.47 L/kg. The same compound had a clearance in data set [20] of 70.1 mL/min/kg. The MRT last at 24 h in data set [21] was 21.6 min; in data set [22], 103 min; in data set [23], 204 min. The bioavailability was found to be 2.02% in [24] and 33.9% in [25]. Moreover, the inhibition entry in data set [27] and in data set [28] was “Dde” in each case.
On to `CN1CCC(COc2cnc(-c3cccc(Cn4nc(-c5cccc(C#N)c5)ccc4=O)c3)nc2)CC1` [TEPOTINIB], for which the IC50 stood at 0.0045 µM in the data set with Hs746T; 0.0088 µM with BaF3 [29]; 0.01 µM with BaF3 [30]; 0.0025 µM in the data set on BaF3 [31]; 0.0015 µM in the data set on BaF3 [32]; 0.0366 µM with BaF3 [33]. Also, the IC50 was determined as 0.0467 µM with BaF3 [34]; 3.06 µM with BaF3 [35]; 2.39 µM with BaF3 [36]; 1.45 µM with AGS; 0.363 µM in the data set on SNU-16.
